From patent US20240415825A1, “COMPOUNDS FOR THE TREATMENT OF MALARIA” (FUNDACIÓ INSTITUT DE BIOENGINYERIA DE CATALUNYA, priority 2021, published 2024)
Where two headings read alike, the source gives them in different places.

Legend:
[1] = test system: P. falciparum 3D7 strain; assay: P. falciparum growth inhibition assay (3D7 strain); assay type: cell-based, Plasmodium falciparum; conditions: for IC50: Plasmodium falciparum, 3D7 strain
Procedure: After the synchronization process, a new culture at 1.5% parasitemia and 2% hematocrit was established and 150 μL aliquots of it were transferred to 96-well plates.
The required amounts of peptides, antimalarial compounds and dyes were added in each well at different concentrations and in triplicates. A positive growth control of untreated parasites and a negative growth control of parasites treated with a lethal dose of chloroquine (1 μM) were also included.
Parasites were grown for 48 h, a complete replication cycle, in standard culturing conditions (5% O2, 5% CO2, and 90% N2 at 37° C.). After the incubation period, 3 μL of culture from each well were mixed with 197 μL of PBS containing 0.1 μM Syto 11 (Thermo Fisher Scientific Inc), to obtain a final concentration of ca. 1-10×10^6 cells/ml.
Parasitemia was assessed by flow cytometry using a LSRFortessa flow cytometer (BD Biosciences, San Jose, CA, USA) set up with the 4 lasers, 20 parameters standard configuration. The single-cell population was selected on a forward-side scatter scattergram.
Growth inhibition was calculated taking as reference values both the growth rate of the untreated culture and the growth rate of the culture treated with chloroquine.

[2] = biological target: T1, Aβ40 (Homo sapiens, UniProt P05067); assay: In vitro Aβ40 aggregation (ThT fluorescence, TEM); assay type: biochemical; conditions: 25 μM Aβ40
T1 construct: Amyloid-β peptide fragment 1-40 (Aβ40); purchased GenScript
Procedure: For the in vitro analysis of As peptide fragment 1-40 (Aβ40) aggregation, 1 mg of Aβ40 (GenScript) was dissolved in 500 μL of 1,1,1,3,3,3-hexafluoro-2-propanol (HFIP, Fluka) under vigorous stirring for 1 h and sonicated for 30 min in a sonication bath. Afterwards, the solution was stirred for 1 h and maintained at 4° C. for 30 min. Aliquots were prepared, HFIP was evaporated under a nitrogen stream for a few seconds and the peptide was stored at −20° C. […] The final sample always contained less than 5% DMSO to avoid interference of this solvent on Aβ40 amyloid fibril formation. Finally, ThT treatment was performed as described above.
25 μM ThT was added to each sample and fluorescence was measured by exciting samples at 440 nm and recording the emission from 465 nm to 600 nm. A blank measurement of each sample was done before adding ThT.
A carbon-coated copper grid was deposited on top of a 50-μL drop of each solution for 30 min. Then, the excess liquid was removed with filter paper and the grid was placed on top of a water drop for 30 s and finally negatively stained for 2 min with 20 μL of 2% uranyl acetate. Samples were observed using a JEM 1010 transmission electron microscope (JEOL Ltd., Japan). Images were acquired using a CCD Orius camera (Gatan, Inc., USA).

[3] = In vivo toxicity assay in mice; set-up: species or system BALB/c mice
Procedure: BALB/c female and male mice (Janvier Laboratories) were maintained with unlimited access to food and water under standard environmental conditions (20-24° C. and 12/12 h light/dark cycle). […] First, the lowest dose was intravenously injected to one female and one male mice. An oxygen stream of 4% isoflurane was used to anesthetize the mice, which were then maintained during the whole procedure (less than 3 minutes) with 2.5% isoflurane.
After the administration, mice were observed and different parameters related to their behavior (lethargy, motility alterations, seizures, coma, automutilation, aggressiveness, vocalizations, stereotyped movements) and physical conditions (pain, respiratory disturbances, tachycardia or bradycardia, dehydration, hair loss, body weight loss, dermatitis, bad hygiene, pruritus, tearing) were followed. If after 48 h no deleterious effects were observed, the following dose was administered to two other male and female mice.

[4] = test system: P. falciparum cultures; assay: ThT analysis of protein aggregation in live P. falciparum cultures; assay type: cell-based, Plasmodium falciparum; conditions: 90 min with 90 nM, equal protein content
Procedure: After 90 min, 4 h and 30 h, a Percoll purification was done in order to isolate parasitized cells from uninfected RBCs. After Percoll purification, the pellets of late stage parasites and a control non-infected RBC suspension containing the same proportion of cells than the purified cultures were resuspended in 50 μl of lysis buffer (4.5 mg/ml NaCl in water supplemented with EDTA-free protease inhibitor cocktail, PIC, Hoffman-La Roche, Basel, Switzerland; 1 PIC tablet/10 ml water) and incubated overnight, at 4° C. under stirring, with the objective of releasing their inner content. After this time, lysed samples were spun down and the protein content in the supernatant was quantified with the bicinchoninic acid assay (Thermo Fisher Scientific), following the manufacturer's instructions. 30 μg of protein from each supernatant were further diluted with PBS to a final volume of 70 μl and plated on a 96-well black plate in triplicates. ThT fluorescence was measured as described above.

[5] = test system: P. falciparum NF54-gexp02-Tom strain gametocytes; assay: microbe, parasite or virus in culture; assay type: cell-based; conditions: Plasmodium falciparum, NF54, 48 h
Procedure: Cultures of the P. falciparum NF54-gexp02-Tom strain (developed and authenticated by Portugaliza, H. P. et al., 2019 and kindly provided by Prof. Alfred Cortes), were maintained in standard conditions in RPMI medium supplemented with 0.5% Albumax II and 2 mM choline, synchronized in ring stages with sorbitol lysis, and diluted to 2% parasitemia. To trigger sexual conversion, choline was removed from the medium and cultures were maintained in the same conditions for 48 h after synchronization (cycle 0). In the next cycle (cycle 1), parasites were treated with 50 mM N-acetylglucosamine (GlcNac) in order to kill asexual parasites, and maintained in RPMI supplemented with 10% human serum. Medium was refreshed daily and GlcNac was kept during 4 days.
Controls of untreated parasites as well as of parasites treated with a lethal dose of chloroquine were prepared. Gametocytemia was monitored daily by light microscopy until the majority of parasites (˜90%) could be identified as stage V gametocytes. At that point, Giemsa smears of each well were prepared and mature gametocytes were manually counted (10,000 cells were counted for each replica by two investigators blinded to group assignment). […] Afterwards, the culture was treated for 48 h with the drugs and the gametocytemia determined as above.

T1 sequence (P05067 672-711 limits assumed, species assumed): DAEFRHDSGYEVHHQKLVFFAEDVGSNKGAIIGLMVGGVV

SMILES: CCN(CC)c1ccc(/C=C/c2cc[n+](CCCCCCCCCC[n+]3ccc(/C=C/c4ccc(N(CC)CC)cc4)c(C)c3)cc2C)cc1 [AID-X-2020, 1,1′-(decane-1,10-diyl)bis{4-[(E)-4-(diethylamino)styryl]-3-methylpyridin-1-ium} dibromide]
- in vitro IC10 ([1]; P. falciparum cultures): 27 nM
- IC50 ([1]; 48 h, Table 2, read-out: IC50 in 3D7 strain (μM) ± SEM): 0.09 ± 0.02 µM
- IC50 ([1]; Example 8, read-out: IC50 in 3D7 strain): 0.09 µM
- IC50 ([1]; read-out: IC50 in P. falciparum in vitro cultures): 0.09 ± 0.002 µM
- inhibition of the aggregation of Aβ40 [2]: strong inhibitor
- dose at which adverse effects start ([3]; female mice): 10 mg/kg
- dose at which toxicity starts being observed ([3]; male mice): 17 mg/kg
- ThT fluorescence of culture extracts [4]: reduced emission spectrum
- IC50 ([5]; read-out: IC50 on early gametocytes): 95 ± 3 nM
- IC50 ([5]; read-out: IC50 on mature stage V (late) gametocytes): 103 ± 3 nM
